Assay results reported in US20090042849A1, “Phosphorylation of 5-lipoxygenase at ser523 and uses thereof” (priority 2006, published 2009).
Entries after “also recorded” stand apart in the source; their conditions may differ.

Experiments:
[1] = test system: 5LO (Ser523 phosphorylated 5LO); assay: immunoblotting of total 5LO and P-5LO in rat myocardium (whole cell homogenate); format: in vivo; details: for myocardial levels of Ser523 phosphorylated 5LO (P-5LO) / myocardial total 5LO levels: whole cell homogenate, PIO or ATV 10 mg/kg/d 3 days, H-89 20 mg/kg i.p.
Protocol: Rats received: 1) PIO (10 mg/kg/d); 2) ATV (10 mg/kg/d); 3) PIO (10 mg/kg/d)+H89 (20 mg/kg); 4) ATV (10 mg/kg/d)+H89 (20 mg/kg); 5) H89 (20 mg/kg) or 6) water alone (control). PIO and ATV were suspended in water and administered by gastric gavage once daily for 3 days; H-89 was dissolved in DMSO (final concentration 5% v/v) and injected intraperitoneally on the third day. Rats in groups 5 and 6 received water by gastric gavage once daily for 3 days. Rats in groups 1, 2 and 6 received intraperitoneal inkection of DMSO 5%. Sixteen hours after the injection, rats were euthanized and the hearts explanted for further analyses. In another experiment, rats received 3-day pretreatment with: 1) water (sham); 2) PIO (10 mg/kg/d); 3) ATV (10 mg/kg/d); 4) PIO (10 mg/kg/d)+ATV (10 mg/kg/d); or 5) LPS (10 mg/kg).
PIO and ATV were administered by oral gavage once daily as above; LPS was administered intravenously. In addition, rats in groups 1-4 received intravenous saline on the […], whereas rats in group 1 and 5 received water by gastric gavage once daily for 3 days and the LPS injection on the third day. Sixteen hours after the injection, rats were euthanized and the hearts explanted for further analyses.
The hearts were rapidly explanted, rinsed in cold PBS (pH 7.4), containing 0.16 mg/ml heparin to remove red blood cells and clots, frozen in liquid nitrogen and stored at −70° C. Myocardial samples from the anterior left ventricular wall were homogenized in RIPA lysis buffer (Santa Cruz Biotechnology, Santa Cruz, Calif.) and centrifuged at 14,000 rpm for 15 min at 4° C. The supernatant was collected and the total protein concentration was determined using the Lowry protein assay. […] The protein samples with loading buffer were run in 4-20% Tri-HCl Ready Gel at a 100V for 2 h until the desired molecular weight bands were separated. After electrophoresis, the gel was equilibrated in transfer buffer (25 mM Tris, 193 mM glycine, 0.1% SDS and 10% methanol) and the proteins were transferred to nitrocellulose membrane. The protein signals were quantified by an image-scanning-densitometer and the strength of each protein signal was normalized to the corresponding b-actin stain signal. Data are expressed as a ratio between the protein and the corresponding b-actin signal density.

5LO mRNA = assay: rtPCR of 5LO mRNA in adult rat cardiomyocytes; format: cell-based
Protocol: Cardiac myocytes were isolated from adult Sprague-Dawley rats (250-300 g, male). Animals were heparinized (1,000-2,000 units i.p.) 5 min before being anesthetized with ketamine (100 mg/kg) and xylazine (10 mg/kg), and the hearts were removed and placed in ice-cold heart media solution (in mmol/l: 112 NaCl, 5.4 KCl, 1 MgCl2, 9 NaH2PO4, and 11.1 D-glucose; supplemented with 10 HEPES, 30 taurine, 2 DL-carnitine, and 2 creatine, pH. 7.4). The hearts were perfused retrogradely in a Langendorff apparatus with Ca^2+-free heart media for 5 min at 5 ml/min at 37° C., followed by perfusion with Ca^2+-free heart media containing collagenase II, 210 U/mg (Worthington, Lakewood, N.J.) for 20 min. After perfusion, both ventricles were removed from the heart and minced in collagenase II-containing heart media for 10-15 min. The cell solution was then washed several times to remove collagenase II and reexposed to 1.2 mM Ca2^+ over 25 min to produce Ca2^+-tolerant cardiac myocytes. Myocytes were then plated in 4% FBS on laminin (2 μg/cm^2)-coated plates for 1 h and incubated at 37° C. in 5% CO2 for 12-24 h before experiments (21). Cells were incubated with 1) vehicle (0.07% ethanol); 2) PIO (10 μM)+ATV (10 μM); 3) H-89 (0.1 μM); or 4) PIO+ATV+H-89 for 12 hours. The supernatants were collected directly for LTB4 analyses by ELISA and the cells were harvested for immunoblotting. In addition, cells were plated in 8-chamber slides, received the same treatment as above and were used for immunohistochemical staining.
Equal amounts of total cellular RNA were reverse-transcribed with oligo(dT) primer by use of AMV Reverse Transcriptase (Applied Biosystems). Transcribed cDNAs (40 ng) were used for Real Time PCR with specific primers: rat ALOX5. […] The Ct (threshold cycle) is defined as the number of cycles required for the fluorescence signal to exceed the detection threshold. Expression of the ALOX5 relative to the GAPDH was calculated as the different between the threshold values of these two genes. […]

Row | Structure (SMILES) | 5LO phosphorylation, PIO and ATV compared with LPS ([1]; PIO, ATV 10 mg/kg/d, LPS 10 mg/kg i.v.) | myocardial levels of Ser523 phosphorylated 5LO (P-5LO) [1] | myocardial total 5LO levels [1] | 5LO mRNA levels in the cardiomyocytes (5LO mRNA) | effect on the increase in P-5LO by PIO and ATV ([1]; H-89 20 mg/kg i.p. with PIO or ATV 10 mg/kg/d)
1 | CC(C)c1c(C(=O)Nc2ccccc2)c(-c2ccccc2)c(-c2ccc(F)cc2)n1CCC(O)CC(O)CC(=O)O (centres unmarked) [ATV, 7-[2-(4-fluorophenyl)-5-(1-methylethyl)-3-phenyl-4-(phenylcarbamoyl)-1H-pyrrol-1-yl]-3,5-dihydroxy-heptanoic acid] | significantly greater increase | augment; also recorded: increased | without detectable change; also recorded: did not affect | did not affect | –
2 | O=S(=O)(NCCNC/C=C/c1ccc(Br)cc1)c1cccc2cnccc12 [H-89] | – | did not affect | did not affect | did not affect | completely blocked
